Results published in ChEMBL document CHEMBL4396928, “Discovery of Selective, Orally Bioavailable Pyrazolopyridine Inhibitors of Protein Kinase Cθ (PKCθ) That Ameliorate Symptoms of Experimental Autoimmune Encephalomyelitis” (ACS Med Chem Lett, 2019).
In brackets after ≈: the same amount, converted by molar mass. Activity calls are given as the source filed them. The rule behind the calls is not given here.

Assays:
[1] = biological target: Rho-associated protein kinase (Homo sapiens, UniProt O75116+Q13464); assay: Inhibition of ROCK (unknown origin) using Myelin Basic Protein as substrate incubated for 60 mins in presence of [33P] gammaATP by microbeta liquid scintillation counter; type: protein assay
[2] = Half-life in iv dosed rat; type: ADME, organism-based; settings: in vivo
[3] = biological target: Glycogen synthase kinase-3 beta (Homo sapiens, UniProt P49841); assay: Inhibition of GSK-3beta (unknown origin) using HSSPHQS(PO3H2)EDEEE peptide as substrate measured after 15 mins in presence of ATP by spectrophotometric analysis
[4] = biological target: Tyrosine-protein kinase JAK2 (Homo sapiens, UniProt O60674); assay: Inhibition of JAK2 (unknown origin) using polyE4Y peptide as substrate incubated for 60 mins in presence of [33P] gammaATP by microbeta liquid scintillation counter
[5] = Clearance in iv dosed rat; type: ADME, organism-based; settings: in vivo
[6] = biological target: Protein kinase C alpha type (Homo sapiens, UniProt P17252); assay: Inhibition of recombinant full length PKC alpha (unknown origin) using RRRRRKGSFKRKA peptide as substrate measured after 15 mins in presence of ATP by spectrophotometric analysis
[7] = Unbound hepatic clearance in human hepatocytes assessed per million cells; type: ADME, cell-based, Hepatocyte
[8] = biological target: cAMP-dependent protein kinase catalytic subunit alpha (Homo sapiens, UniProt P17612); assay: Inhibition of protein kinase A (unknown origin) using Kemptide (LRRASLG) as substrate incubated for 15 mins in presence of ATP by spectrophotometric analysis
[9] = biological target: Protein kinase C theta type (Homo sapiens, UniProt Q04759); assay: Inhibition of human recombinant full length His tagged PKC theta expressed in baculovirus using ERMRPRKRQGSVRRRV peptide as substrate incubated for 60 mins in presence of [33P] gammaATP by microbeta liquid scintillation counter
[10] = Lipophilicity, logD of compound; type: physicochemical; settings: octanol/water
[11] = biological target: Protein kinase C delta type (Homo sapiens, UniProt Q05655); assay: Inhibition of recombinant full length PKC delta (unknown origin) using ERMRPRKR- QGSVRRRV peptide as substrate measured after 15 mins in presence of ATP by spectrophotometric analysis
[12] = biological target: T1, Receptor-type tyrosine-protein kinase FLT3 (Homo sapiens, UniProt P36888); assay: Inhibition of FLT3 (unknown origin) using polyE4Y peptide as substrate incubated for 60 mins in presence of [33P] gammaATP by microbeta liquid scintillation counter
T1 sequence (P36888 whole entry): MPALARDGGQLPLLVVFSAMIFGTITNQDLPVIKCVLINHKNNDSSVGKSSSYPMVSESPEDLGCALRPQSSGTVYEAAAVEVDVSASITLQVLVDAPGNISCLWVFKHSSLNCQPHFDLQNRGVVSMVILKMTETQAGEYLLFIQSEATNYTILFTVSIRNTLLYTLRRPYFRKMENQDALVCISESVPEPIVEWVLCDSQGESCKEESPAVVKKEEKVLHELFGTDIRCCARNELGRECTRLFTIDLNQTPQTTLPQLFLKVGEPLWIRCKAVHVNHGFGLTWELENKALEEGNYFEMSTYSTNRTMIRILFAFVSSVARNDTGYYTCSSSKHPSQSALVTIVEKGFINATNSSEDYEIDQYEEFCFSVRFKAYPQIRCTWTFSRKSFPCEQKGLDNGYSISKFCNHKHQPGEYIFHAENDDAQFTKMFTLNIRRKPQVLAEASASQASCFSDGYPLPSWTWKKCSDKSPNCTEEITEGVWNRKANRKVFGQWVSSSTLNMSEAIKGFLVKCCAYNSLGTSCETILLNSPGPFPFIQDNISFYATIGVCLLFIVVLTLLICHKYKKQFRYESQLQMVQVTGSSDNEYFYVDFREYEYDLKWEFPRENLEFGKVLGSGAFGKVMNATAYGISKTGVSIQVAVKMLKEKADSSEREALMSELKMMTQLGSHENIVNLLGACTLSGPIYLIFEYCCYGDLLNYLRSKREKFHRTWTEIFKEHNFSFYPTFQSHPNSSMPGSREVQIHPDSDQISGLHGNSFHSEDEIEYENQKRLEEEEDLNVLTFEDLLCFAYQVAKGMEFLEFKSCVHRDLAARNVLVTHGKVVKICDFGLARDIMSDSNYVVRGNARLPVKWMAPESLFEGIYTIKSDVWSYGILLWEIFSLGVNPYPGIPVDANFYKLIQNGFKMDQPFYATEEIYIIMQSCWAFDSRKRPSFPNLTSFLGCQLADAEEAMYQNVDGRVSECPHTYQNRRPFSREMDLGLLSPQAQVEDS

[13] = Volume of distribution at steady state in iv dosed rat; type: ADME, organism-based; settings: in vivo, read-out: Vdss
[14] = Unbound hepatic clearance in rat hepatocytes assessed per million cells; type: ADME, cell-based, Hepatocyte
[15] = biological target: T2, Tyrosine-protein kinase JAK3 (Homo sapiens, UniProt P52333); assay: Inhibition of JAK3 (unknown origin)
T2 sequence (P52333 whole entry): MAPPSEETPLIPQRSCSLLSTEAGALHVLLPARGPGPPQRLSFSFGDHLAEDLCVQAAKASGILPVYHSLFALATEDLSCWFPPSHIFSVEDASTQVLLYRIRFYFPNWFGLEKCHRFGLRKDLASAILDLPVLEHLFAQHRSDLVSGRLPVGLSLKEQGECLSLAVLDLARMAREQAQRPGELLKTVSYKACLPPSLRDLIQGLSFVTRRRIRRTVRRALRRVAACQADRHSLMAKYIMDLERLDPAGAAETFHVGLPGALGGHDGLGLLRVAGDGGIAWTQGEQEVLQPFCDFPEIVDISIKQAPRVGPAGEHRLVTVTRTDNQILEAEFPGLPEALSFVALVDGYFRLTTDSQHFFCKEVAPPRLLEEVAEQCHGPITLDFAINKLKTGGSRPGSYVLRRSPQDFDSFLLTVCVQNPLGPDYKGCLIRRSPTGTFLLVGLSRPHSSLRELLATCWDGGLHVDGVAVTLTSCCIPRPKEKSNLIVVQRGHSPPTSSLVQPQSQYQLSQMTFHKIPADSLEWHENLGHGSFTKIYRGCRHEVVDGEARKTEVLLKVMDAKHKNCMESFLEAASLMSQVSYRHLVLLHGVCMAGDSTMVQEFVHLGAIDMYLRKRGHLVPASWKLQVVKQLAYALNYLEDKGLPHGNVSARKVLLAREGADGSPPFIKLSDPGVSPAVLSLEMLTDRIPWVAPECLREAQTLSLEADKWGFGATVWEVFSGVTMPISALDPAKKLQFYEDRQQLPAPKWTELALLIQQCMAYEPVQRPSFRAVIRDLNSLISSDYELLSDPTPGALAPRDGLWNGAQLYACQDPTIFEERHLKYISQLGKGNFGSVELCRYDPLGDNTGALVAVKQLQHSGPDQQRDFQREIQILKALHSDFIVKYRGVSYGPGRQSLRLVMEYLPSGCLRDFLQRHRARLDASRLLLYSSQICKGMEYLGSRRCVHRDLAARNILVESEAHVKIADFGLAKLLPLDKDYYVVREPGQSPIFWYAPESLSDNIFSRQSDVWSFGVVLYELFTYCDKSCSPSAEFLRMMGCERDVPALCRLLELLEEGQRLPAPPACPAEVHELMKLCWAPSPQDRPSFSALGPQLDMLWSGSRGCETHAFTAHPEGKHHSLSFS

[16] = biological target: T3, Cytochrome P450 3A4 (Homo sapiens, UniProt P08684); assay: Inhibition of CYP3A4 (unknown origin) at 22 uM; type: ADME
[17] = Stability of compound in human liver microsomes assessed as compound remaining at 30 mins; type: ADME, Microsome; settings: read-out: Stability
[18] = biological target: T4, Cytochrome P450 2D6 (Homo sapiens, UniProt P10635); assay: Inhibition of CYP2D6 (unknown origin) at > 30 uM; type: ADME
[19] = Dissociation constant, pKa of compound; type: physicochemical
[20] = Stability of compound in rat liver microsomes assessed as compound remaining at 30 mins; type: ADME, Microsome; settings: read-out: Stability
[21] = biological target: T5, Cytochrome P450 2C9 (Homo sapiens, UniProt P11712); assay: Inhibition of CYP2C9 (unknown origin) at > 30 uM; type: ADME
[22] = test system: HFL1; assay: Cytotoxicity against human HFL1 cells assessed as growth inhibition measured after 48 hrs by 3H-thymidine incorporation assay; type: cell-based
[23] = biological target: Voltage-gated inwardly rectifying potassium channel KCNH2 (Homo sapiens, UniProt Q12809); assay: Inhibition of human ERG
[24] = test system: PBMC; assay: Inhibition of IL-2 secretion from human PBMC cells stimulated with anti-CD3/CD28 measured after 24 hrs by bead-based FLISA; type: functional, cell-based
[25] = biological target: T3, Cytochrome P450 3A4; assay: Inhibition of CYP3A4 (unknown origin) at 16 uM; type: ADME
[26] = biological target: T4, Cytochrome P450 2D6; assay: Inhibition of CYP2D6 (unknown origin) at 8 uM; type: ADME
[27] = biological target: T5, Cytochrome P450 2C9; assay: Inhibition of CYP2C9 (unknown origin) at 4 uM; type: ADME
[28] = Half-life in iv dosed cynomolgus monkey; type: ADME, organism-based, Macaca fascicularis; settings: in vivo
[29] = test system: Mus musculus; assay: In vivo inhibition of Il-2 production in BALB/c mouse at 25 to 100 mg/lg, po measured after 3 hrs; type: functional, organism-based
[30] = Inhibition of CD3/CD28 stimulated IL-17 secretion from human Th17 cells measured after 24 hrs by ELISA
[31] = Half-life in iv dosed dog; type: ADME, organism-based, Canis lupus familiaris; settings: in vivo
[32] = Clearance in iv dosed cynomolgus monkey; type: ADME, organism-based, Macaca fascicularis; settings: in vivo
[33] = Oral bioavailability in mouse; type: ADME, organism-based; settings: in vivo
[34] = Oral bioavailability in rat; type: ADME, organism-based; settings: in vivo
[35] = test system: Mus musculus; assay: Anti-inflammatory activity in C57BL/6 mouse model of MOG (35 to 55 residues)/pertussis toxin/complete Freund's adjuvant-induced autoimmune encephalomyelitis assessed as reduction in development of clinical symptoms at 50 mg/kg, po bid starting from day 8 post immunization upto 10 days; type: functional, organism-based
[36] = Clerance in iv dosed dog; type: ADME, organism-based, Canis lupus familiaris; settings: in vivo
[37] = Unbound drug level in brain of BALB/c mouse at 50 mg/kg, po measured after 3 hrs; type: ADME, organism-based; settings: in vivo
[38] = Thermodynamic solubility of compound in sodium phosphate buffer at pH 7.4; type: physicochemical; settings: read-out: Therm_solubility
[39] = Efflux ratio of permeability in human Caco2 cells by LC-MS/MS analysis; type: ADME, cell-based; settings: Caco-2
[40] = Permeability across apical to basolateral side in human Caco2 cells measured at 120 mins by LC-MS/MS analysis; type: ADME, cell-based; settings: Caco-2, read-out: permeability
[41] = biological target: Protein kinase C beta type (Homo sapiens, UniProt P05771); assay: Inhibition of human PKC beta
[42] = Unbound drug level in brain of BALB/c mouse at 100 mg/kg, po measured after 3 hrs; type: ADME, organism-based; settings: in vivo

Chain of Protein kinase C delta type (Q05655 whole entry): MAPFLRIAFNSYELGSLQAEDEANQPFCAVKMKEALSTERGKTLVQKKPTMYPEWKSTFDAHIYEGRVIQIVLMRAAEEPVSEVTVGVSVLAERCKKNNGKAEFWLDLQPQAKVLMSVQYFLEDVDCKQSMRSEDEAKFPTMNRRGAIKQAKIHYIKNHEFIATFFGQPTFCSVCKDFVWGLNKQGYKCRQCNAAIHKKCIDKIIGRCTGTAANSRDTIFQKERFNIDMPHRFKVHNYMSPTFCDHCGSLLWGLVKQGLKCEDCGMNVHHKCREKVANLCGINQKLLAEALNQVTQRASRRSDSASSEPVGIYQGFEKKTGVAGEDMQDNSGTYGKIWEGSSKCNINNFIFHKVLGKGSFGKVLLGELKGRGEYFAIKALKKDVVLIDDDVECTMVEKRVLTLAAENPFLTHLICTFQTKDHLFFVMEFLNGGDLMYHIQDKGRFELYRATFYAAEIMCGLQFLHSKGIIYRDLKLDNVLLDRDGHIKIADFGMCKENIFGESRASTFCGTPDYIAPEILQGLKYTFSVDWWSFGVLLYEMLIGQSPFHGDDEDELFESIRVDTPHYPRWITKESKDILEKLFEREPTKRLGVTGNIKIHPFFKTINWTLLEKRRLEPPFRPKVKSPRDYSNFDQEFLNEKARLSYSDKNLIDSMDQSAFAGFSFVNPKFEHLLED
Chain of Voltage-gated inwardly rectifying potassium channel KCNH2 (Q12809 whole entry): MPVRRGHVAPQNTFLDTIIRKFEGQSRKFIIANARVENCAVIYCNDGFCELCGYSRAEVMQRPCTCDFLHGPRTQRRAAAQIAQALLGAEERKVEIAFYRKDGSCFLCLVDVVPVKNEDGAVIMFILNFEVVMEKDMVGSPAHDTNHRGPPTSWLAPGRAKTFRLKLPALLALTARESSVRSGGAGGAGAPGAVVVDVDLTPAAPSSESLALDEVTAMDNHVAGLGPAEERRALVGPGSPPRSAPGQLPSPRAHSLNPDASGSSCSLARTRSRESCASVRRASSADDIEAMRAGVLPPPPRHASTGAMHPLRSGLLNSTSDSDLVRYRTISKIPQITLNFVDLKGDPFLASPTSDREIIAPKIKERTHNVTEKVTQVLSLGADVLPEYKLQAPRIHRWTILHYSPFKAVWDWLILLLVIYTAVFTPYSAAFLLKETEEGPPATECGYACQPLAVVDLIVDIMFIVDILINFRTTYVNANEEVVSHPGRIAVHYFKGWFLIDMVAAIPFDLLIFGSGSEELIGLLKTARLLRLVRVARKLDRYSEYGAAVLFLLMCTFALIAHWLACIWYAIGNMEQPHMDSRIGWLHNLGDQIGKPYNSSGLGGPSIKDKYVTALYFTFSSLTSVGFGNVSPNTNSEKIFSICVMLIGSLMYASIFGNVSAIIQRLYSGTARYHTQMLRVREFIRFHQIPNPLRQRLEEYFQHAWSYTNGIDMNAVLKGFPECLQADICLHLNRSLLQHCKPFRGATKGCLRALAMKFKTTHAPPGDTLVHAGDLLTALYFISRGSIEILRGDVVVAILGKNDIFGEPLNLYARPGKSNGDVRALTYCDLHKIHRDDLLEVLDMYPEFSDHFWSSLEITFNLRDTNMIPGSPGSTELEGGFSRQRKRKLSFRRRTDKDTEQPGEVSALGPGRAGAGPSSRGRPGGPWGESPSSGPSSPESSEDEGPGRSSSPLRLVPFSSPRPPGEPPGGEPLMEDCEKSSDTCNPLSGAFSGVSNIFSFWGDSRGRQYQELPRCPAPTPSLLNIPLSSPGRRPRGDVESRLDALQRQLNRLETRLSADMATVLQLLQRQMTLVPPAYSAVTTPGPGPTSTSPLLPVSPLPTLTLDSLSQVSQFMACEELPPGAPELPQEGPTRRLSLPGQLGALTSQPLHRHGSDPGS
Chain of Protein kinase C theta type (Q04759 whole entry): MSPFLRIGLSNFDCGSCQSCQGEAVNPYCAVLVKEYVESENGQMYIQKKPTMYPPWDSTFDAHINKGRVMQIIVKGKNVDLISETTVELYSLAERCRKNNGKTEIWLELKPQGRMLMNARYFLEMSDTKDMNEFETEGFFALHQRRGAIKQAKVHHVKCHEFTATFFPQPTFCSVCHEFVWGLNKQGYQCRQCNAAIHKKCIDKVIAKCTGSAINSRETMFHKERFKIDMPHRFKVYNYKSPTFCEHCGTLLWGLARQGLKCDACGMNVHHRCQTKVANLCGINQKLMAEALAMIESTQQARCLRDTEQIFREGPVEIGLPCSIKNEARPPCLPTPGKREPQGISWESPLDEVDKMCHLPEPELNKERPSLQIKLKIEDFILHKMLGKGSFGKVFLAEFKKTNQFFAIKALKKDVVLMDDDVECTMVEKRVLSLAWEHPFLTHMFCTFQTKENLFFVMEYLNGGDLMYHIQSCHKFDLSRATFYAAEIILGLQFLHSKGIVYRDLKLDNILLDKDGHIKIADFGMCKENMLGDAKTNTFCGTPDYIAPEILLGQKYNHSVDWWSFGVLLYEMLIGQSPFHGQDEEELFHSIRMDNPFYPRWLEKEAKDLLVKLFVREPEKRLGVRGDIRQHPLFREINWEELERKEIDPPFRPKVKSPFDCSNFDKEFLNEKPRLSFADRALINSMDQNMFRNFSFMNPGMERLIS
T3 sequence (P08684 whole entry): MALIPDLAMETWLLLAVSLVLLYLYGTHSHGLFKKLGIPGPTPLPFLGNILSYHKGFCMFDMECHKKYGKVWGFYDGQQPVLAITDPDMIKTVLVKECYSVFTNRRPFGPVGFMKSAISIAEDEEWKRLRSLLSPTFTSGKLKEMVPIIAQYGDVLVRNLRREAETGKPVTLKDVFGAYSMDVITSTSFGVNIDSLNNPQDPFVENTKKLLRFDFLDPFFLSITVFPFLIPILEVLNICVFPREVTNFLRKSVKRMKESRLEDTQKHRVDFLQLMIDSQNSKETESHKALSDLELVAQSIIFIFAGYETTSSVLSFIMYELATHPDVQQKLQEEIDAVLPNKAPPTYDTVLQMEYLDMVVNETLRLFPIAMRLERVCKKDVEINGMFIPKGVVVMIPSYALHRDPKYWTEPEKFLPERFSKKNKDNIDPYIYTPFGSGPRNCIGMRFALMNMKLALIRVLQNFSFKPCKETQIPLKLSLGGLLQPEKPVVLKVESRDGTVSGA
T4 sequence (P10635 whole entry): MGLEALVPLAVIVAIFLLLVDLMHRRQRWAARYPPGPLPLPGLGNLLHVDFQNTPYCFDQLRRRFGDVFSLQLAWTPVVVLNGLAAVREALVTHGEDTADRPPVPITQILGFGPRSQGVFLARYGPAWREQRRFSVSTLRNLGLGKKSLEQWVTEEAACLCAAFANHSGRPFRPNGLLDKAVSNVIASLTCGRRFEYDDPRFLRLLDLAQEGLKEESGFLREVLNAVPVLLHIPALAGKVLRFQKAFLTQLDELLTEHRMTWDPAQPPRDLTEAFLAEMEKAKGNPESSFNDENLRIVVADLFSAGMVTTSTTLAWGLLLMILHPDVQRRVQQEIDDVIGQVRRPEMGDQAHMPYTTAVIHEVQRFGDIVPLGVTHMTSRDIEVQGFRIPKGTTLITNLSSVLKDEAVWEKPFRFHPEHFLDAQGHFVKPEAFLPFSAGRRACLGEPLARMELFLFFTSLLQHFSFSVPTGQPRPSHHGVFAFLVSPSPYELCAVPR
T5 sequence (P11712 whole entry): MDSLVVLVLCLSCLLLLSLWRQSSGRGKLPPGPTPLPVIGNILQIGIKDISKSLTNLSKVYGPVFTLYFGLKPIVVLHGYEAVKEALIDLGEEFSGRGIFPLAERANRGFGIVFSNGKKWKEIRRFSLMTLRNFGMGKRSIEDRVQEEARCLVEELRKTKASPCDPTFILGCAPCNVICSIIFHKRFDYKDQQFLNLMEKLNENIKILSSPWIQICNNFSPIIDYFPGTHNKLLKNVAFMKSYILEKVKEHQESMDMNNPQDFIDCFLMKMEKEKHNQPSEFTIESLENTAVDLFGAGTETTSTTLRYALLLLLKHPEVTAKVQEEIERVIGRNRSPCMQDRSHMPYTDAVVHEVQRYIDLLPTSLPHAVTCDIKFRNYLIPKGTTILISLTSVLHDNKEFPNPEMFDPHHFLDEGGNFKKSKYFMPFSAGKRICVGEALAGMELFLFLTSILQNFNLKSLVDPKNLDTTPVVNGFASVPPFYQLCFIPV

SMILES | half-life [2] [h] | clearance [5] [mL/min/kg] | Ki [6] [µM] | Ki [9] [µM] | logD [10] | Ki [11] [µM] | remaining at 0.5 h [17] [%] | pKa [19] | remaining at 0.5 h [20] [%] | IC50 [22] [µM] | IC50 [23] [µM] | IC50 [24] [µM] | further results
CC(C)(C#N)c1cccc(-c2ccnc3[nH]ccc23)n1 | 0.3 | 42 | 0.11 | 0.003 | 3.4 | 0.012 |  |  |  |  |  |  | Ki [1]: 0.006 µM; Ki [3]: 0.21 µM; Ki [4]: 0.013 µM; CL free [7]: 24 µL/min; Ki [8]: 0.11 µM; Ki [12]: 0.1 µM; Vd [13]: 0.99 L/kg; CL free [14]: 156 µL/min; Ki [15]: 0.003 µM
Cc1cc(-c2ccnc3[nH]nc(C(F)(F)F)c23)cc(C2(CN)COC2)c1 |  |  | 0.286 | 0.008 | 2.2 | 0.542 | 86 | 7.9 | 59 | 2.5 | > 10 | 0.45 | inhibition (INH) [16]: Active; inhibition (INH) [18]: Active; inhibition (INH) [21]: Active
Cc1cc(-c2ccnc3[nH]nc(C(F)(F)F)c23)cc(C2(CN)CCC2)c1 |  |  | 0.06 | 0.003 | 2.9 | 0.135 | 81 | 8.8 | 56 | 0.65 | 0.7 | 0.06 | inhibition (INH) [25]: Active; inhibition (INH) [26]: Active; inhibition (INH) [27]: Active
NCC1(c2cccc(-c3ccnc4[nH]nc(C(F)(F)F)c34)c2)COC1 | 1.2 | 62 | 1.02 | 0.006 | 1.7 | 0.392 | 100 | 7.6 | 77 | > 10 | > 10 | 0.21 | half-life [28]: 5.1 h; inhibition [29]: Active; IC50 [30]: 1 µM; half-life [31]: 6.2 h; clearance [32]: 9 mL/min/kg; bioavailability [33]: 67%; bioavailability [34]: 46%; Activity [35]: Active; clearance [36]: 12 mL/min/kg; Drug uptake(free) [37]: 0.19 µM; solubility thermodynamic [38]: 515 µM (≈ 179 µg/mL); efflux ratio [39]: 2.4; Papp A→B at 2 h [40]: 19 ×10⁻⁶ cm/s; Ki [41]: 1.7 µM; Drug uptake(free) [42]: 0.4 µM
